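Compound exposure: 48 hours, 5 concentrations, 96-well plates. At the TGI there is no net growth.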
How the values were obtained:
Test in all cases: DTP human tumour cell line panel, 48 h
SW-620 colon = test system: SW-620 colon
MCF7 breast = test system: MCF7 breast
UO-31 renal = test system: UO-31 renal
PC-3 prostate = test system: PC-3 prostate
LOX IMVI melanoma = test system: LOX IMVI melanoma
ACHN renal = test system: ACHN renal
SK-OV-3 ovarian = test system: SK-OV-3 ovarian
MDA-MB-231 breast = test system: MDA-MB-231 breast
UACC-257 melanoma = test system: UACC-257 melanoma
MALME-3M melanoma = test system: MALME-3M melanoma
SK-MEL-5 melanoma = test system: SK-MEL-5 melanoma
NCI/ADR-RES ovarian = test system: NCI/ADR-RES ovarian
OVCAR-8 ovarian = test system: OVCAR-8 ovarian
MDA-N = test system: MDA-N
HCT-116 colon = test system: HCT-116 colon
SF-268 CNS = test system: SF-268 CNS
T-47D breast = test system: T-47D breast
SK-MEL-28 melanoma = test system: SK-MEL-28 melanoma
HL-60(TB) leukemia = test system: HL-60(TB) leukemia

Measured: TGI

CCOC(=O)Oc1cc2c(ccn2C)c2c1c1ccccc1n2C(=O)OCC
> 100 µM: SW-620 colon | MCF7 breast | UO-31 renal | PC-3 prostate | LOX IMVI melanoma | ACHN renal | SK-OV-3 ovarian | MDA-MB-231 breast | UACC-257 melanoma | MALME-3M melanoma | SK-MEL-5 melanoma | NCI/ADR-RES ovarian | OVCAR-8 ovarian | MDA-N | HCT-116 colon | SF-268 CNS | T-47D breast | SK-MEL-28 melanoma

Cc1nc2ccc(N=NN(C)C)cc2[nH]1
> 100 µM: SW-620 colon | MCF7 breast | UO-31 renal | PC-3 prostate | LOX IMVI melanoma | ACHN renal | SK-OV-3 ovarian | MDA-MB-231 breast | UACC-257 melanoma | MALME-3M melanoma | SK-MEL-5 melanoma | NCI/ADR-RES ovarian | OVCAR-8 ovarian | MDA-N | HCT-116 colon | SF-268 CNS | T-47D breast | SK-MEL-28 melanoma

COc1ccc(-n2cnc3c(NC(C)(C)C(=O)O)ncnc32)cc1
> 100 µM: SW-620 colon | MCF7 breast | UO-31 renal | PC-3 prostate | LOX IMVI melanoma | ACHN renal | SK-OV-3 ovarian | MDA-MB-231 breast | UACC-257 melanoma | SK-MEL-5 melanoma | NCI/ADR-RES ovarian | OVCAR-8 ovarian | MDA-N | HCT-116 colon | SF-268 CNS | T-47D breast | SK-MEL-28 melanoma

Cc1ccnc2nc3[nH]c4ccccc4c3cc12
> 100 µM: SW-620 colon | MCF7 breast | UO-31 renal | PC-3 prostate | LOX IMVI melanoma | ACHN renal | MDA-MB-231 breast | UACC-257 melanoma | SK-MEL-5 melanoma | NCI/ADR-RES ovarian | OVCAR-8 ovarian | MDA-N | HCT-116 colon | SF-268 CNS | T-47D breast

CCCCc1ccc(N2C(=O)c3cccnc3S2(=O)=O)cc1
> 100 µM: SW-620 colon | MCF7 breast | UO-31 renal | PC-3 prostate | ACHN renal | SK-OV-3 ovarian | MDA-MB-231 breast | UACC-257 melanoma | MALME-3M melanoma | NCI/ADR-RES ovarian | OVCAR-8 ovarian | HL-60(TB) leukemia | MDA-N | HCT-116 colon | SF-268 CNS | T-47D breast | SK-MEL-28 melanoma

Cc1ccccc1NC(=O)/C(C#N)=N\Nc1nc[nH]c1C(N)=O
> 100 µM: SW-620 colon | MCF7 breast | UO-31 renal | PC-3 prostate | ACHN renal | SK-OV-3 ovarian | MDA-MB-231 breast | UACC-257 melanoma | MALME-3M melanoma | SK-MEL-5 melanoma | NCI/ADR-RES ovarian | OVCAR-8 ovarian | HL-60(TB) leukemia | MDA-N | HCT-116 colon | SF-268 CNS | T-47D breast | SK-MEL-28 melanoma

CC(C)N1CCCOC(c2ccc([N+](=O)[O-])cc2)O1 (centres undefined)
> 100 µM: SW-620 colon | MCF7 breast | UO-31 renal | PC-3 prostate | LOX IMVI melanoma | ACHN renal | SK-OV-3 ovarian | MDA-MB-231 breast | UACC-257 melanoma | MALME-3M melanoma | SK-MEL-5 melanoma | NCI/ADR-RES ovarian | OVCAR-8 ovarian | MDA-N | HCT-116 colon | SF-268 CNS | T-47D breast | SK-MEL-28 melanoma

O=c1[nH]c(=O)n(C2CC(O)C(CO)O2)c2nc3ccc4ccccc4c3nc12 (centres undefined)
> 100 µM: SW-620 colon | MCF7 breast | UO-31 renal | PC-3 prostate | LOX IMVI melanoma | ACHN renal | SK-OV-3 ovarian | MDA-MB-231 breast | UACC-257 melanoma | MALME-3M melanoma | SK-MEL-5 melanoma | NCI/ADR-RES ovarian | OVCAR-8 ovarian | MDA-N | HCT-116 colon | SF-268 CNS | T-47D breast | SK-MEL-28 melanoma

Source: PubChem BioAssay (NCI)
